Counter-ions that a name gives are not always drawn.

On to `CN(C(=O)c1ccc(-n2ncc3ccccc32)cc1)C1CCN(C2CCCC2)CC1` (as salt: hydrochloride) [Example 74, N-(1-cyclopentylpiperidin-4-yl)-4-(1H-indazol-1-yl)-N-methylbenzamide], for which the melting point was 240 °C (dec.).
The same measure for `Cc1nc2ccccc2n1Cc1ccc(C(=O)N(C)[C@@H]2CCN(C3CCC3)C2)c2ccccc12` (as salt: hydrochloride) [Example 143b, (R)—N-(1-cyclobutylpyrrolidin-3-yl)-N-methyl-4-((2-methyl-1H-benzo[d]imidazol-1-yl)methyl)-1-naphthamide]: 157 to 159 °C.
In the case of `CCN(C(=O)c1ccc(-n2c(C)nc3ccccc32)cc1)[C@@H]1CCN(C2CCCCC2)C1` (as salt: hydrochloride) [Example 142, N-[(3R)-1-cyclohexylpyrrolidin-3-yl]-N-ethyl-4-(2-methyl-1H-benzimidazol-1-yl)benzamide] it was 177 to 179 °C; in that of `Cc1nc2ccccc2n1Cc1ccc(C(=O)N(C)C2CCN(C3CCC3)CC2)cc1` (as salt: hydrochloride) [Example 47, N-(1-cyclobutylpiperidin-4-yl)-N-methyl-4-[(2-methyl-1H-benzimidazol-1-yl)methyl]benzamide], 280 °C (dec.); in that of `Cc1nc2ccccc2n1-c1ccc(C(=O)N(C)[C@@H]2CCN(C(C)C)C2)c(Cl)c1` (as salt: hydrochloride) [Example 105, 2-chloro-N-methyl-4-(2-methyl-1H-benzimidazol-1-yl)-N-[(3R)-1-(1-methylethyl)pyrrolidin-3-yl]benzamide], 204 to 205 °C.
The same measure for `Cc1nc2ccccc2n1Cc1ccc(C(=O)N(C)[C@@H]2CCN(C3CCCCC3)C2)cc1` (as salt: hydrochloride) [Example 40, N-[(3R)-1-cyclohexylpyrrolidin-3-yl]-N-methyl-4-[(2-methyl-1H-benzimidazol-1-yl)methyl]benzamide]: 188 to 190 °C; for `Cc1nc2cc(C#N)ccc2n1-c1ccc(C(=O)N(C)[C@@H]2CCN(C3CCC3)C2)cc1` (as salt: hydrochloride) [Example 55, 4-(5-cyano-2-methyl-1H-benzimidazol-1-yl)-N-[(3R)-1-cyclobutylpyrrolidin-3-yl]-N-methylbenzamide]: 240 to 242 °C; for `COc1cc(C(=O)N(C)C2CCN(C(C)C)CC2)ccc1-n1c(C)nc2ccccc21` (as salt: hydrochloride) [Example 125, 3-methoxy-N-methyl-4-(2-methyl-1H-benzimidazol-1-yl)-N-[1-(1-methylethyl)piperidin-4-yl]benzamide]: 250 to 252 °C.
Regarding `CN(C(=O)c1ccc(Cn2cnc3ccccc32)cc1)C1CCN(C2CCC2)CC1` (as salt: hydrochloride) [Example 50, 4-(1H-benzimidazol-1-ylmethyl)-N-(1-cyclobutylpiperidin-4-yl)-N-methylbenzamide], the melting point is 238 to 240 °C.
Take `Cc1nc2ccccc2n1-c1ccc(C(=O)N(C)[C@@H]2CCN(C3CC4CCC3C4)C2)cc1` (stereo partly shown) (as salt: hydrochloride): the melting point was 205 to 207 °C.
The same measure for `CN(C(=O)c1ccc(Cn2ncc3ccccc32)cc1)[C@@H]1CCNC1` (as salt: hydrochloride) [Example 75, (R)-4-((1H-indazol-1-yl)methyl)-N-methyl-N-(pyrrolidin-3yl)benzamide]: 255 to 256 °C; for `Cc1nc2ccccc2n1-c1ccc(C(=O)N(C)[C@@H]2CCN(C(C)C)C2)cc1F` (as salt: hydrochloride) [Example 103, 3-fluoro-N-methyl-4-(2-methyl-1H-benzimidazol-1-yl)-N-[(3R)-1-(1-methylethyl)pyrrolidin-3-yl]benzamide]: 175 to 177 °C; for `Cc1nc2ccccc2n1-c1ccc(C(=O)N(C)[C@@H]2CCN(C3C4CC5CC(C4)CC3C5)C2)cc1` (stereo partly shown) (as salt: hydrochloride): 257 to 259 °C.
The same measure for `CC(C)N1CCC(N(C)C(=O)c2ccc(Cn3cnc4ccccc43)cc2)CC1` (as salt: hydrochloride) [Example 49, 4-(1H-benzimidazol-1-ylmethyl)-N-(1-isopropylpiperidin-4-yl)-N-methylbenzamide]: 185 to 187 °C.
The same measure for `Cc1nc2ccccc2n1-c1ccc(C(=O)N(C)[C@H]2CCN(C(C)C)C2)cc1` (as salt: hydrochloride): 190 to 192 °C.
For `Cc1nc2ccccc2n1-c1ccc(C(=O)N(C)[C@H]2CCN(C3CCCC3)C2)cc1` (as salt: hydrochloride), the melting point was in the range of 165 to 166 °C.
The same measure for `Cc1nc2ccccc2n1-c1ccc(C(=O)N(C)C2CCNCC2)cc1` (as salt: hydrochloride) [Example 30, N-Methyl-4-(2-methylbenzimidazol-1-yl)-N-piperidin-4-yl-benzamide Hydrochloride]: 219 to 221 °C; for `CC(C)N1CC[C@@H](N(C)C(=O)c2ccc(Cn3ncc4ccccc43)cc2)C1` (as salt: hydrochloride) [Example 76, 4-(1H-indazol-1-ylmethyl)-N-[(3R)-1-isopropylpyrrolidin-3-yl]-N-methylbenzamide]: 156 to 158 °C; for `CN(C(=O)c1ccc(-n2cccn2)cc1)C1CCN(C2CCC2)CC1` (as salt: hydrochloride) [Example 86, N-(1-cyclobutylpiperidin-4-yl)-N-methyl-4-(1H-pyrazol-1-yl)benzamide]: 272 to 273 °C.
The same measure for `Cc1nc2ccccc2n1-c1ccc(C(=O)N(C)[C@H]2CCN(C3CC[C@@H](C)C3)C2)cc1` (stereo partly shown) (as salt: hydrochloride): 175 to 177 °C; for `COc1cc(-n2c(C)nc3ccccc32)ccc1C(=O)N(C)C1CCN(C2CCCC2)CC1` (as salt: hydrochloride) [Example 128, N-(1-cyclopentylpiperidin-4-yl)-2-methoxy-N-methyl-4-(2-methyl-1H-benzo[d]imidazol-1-yl)benzamide]: 210 to 212 °C.
The same measure for `Cc1nc2ccccc2n1-c1ccc(C(=O)N(C)C2CCN(C3CCC3)CC2)cc1` (as salt: hydrochloride) [Example 34, N-(1-cyclobutylpiperidin-4-yl)-N-methyl-4-(2-methyl-1H-benzimidazol-1-yl)benzamide]: 280 °C (dec.); for `CN(C(=O)c1ccc(-n2cc3ccccc3n2)cc1)C1CCN(C2CCCC2)CC1` (as salt: hydrochloride) [Example 71, N-(1-cyclopentylpiperidin-4-yl)-4-(2H-indazol-2-yl)-N-methylbenzamide]: 283 to 285 °C.
In the case of `Cc1nc2ccccc2n1-c1ccc(C(=O)N(C)[C@H]2CCN(C3CCCC(C)C3)C2)cc1` (stereo partly shown) (as salt: hydrochloride), the melting point was 181 to 183 °C.
In the case of `Cc1nc2ccccc2n1-c1ccc(C(=O)N(C)[C@@H]2CCN(CC3CCCCC3)C2)cc1` (as salt: hydrochloride) it was 184 to 185 °C; in that of `CC(C)N1CCC(N(C)C(=O)c2ccc(-n3cc4ccccc4n3)cc2)CC1` (as salt: hydrochloride) [Example 69, 4-(2H-indazol-2-yl)-N-(1-isopropylpiperidin-4-yl)-N-methylbenzamide], 166 to 168 °C.
The same measure for `COc1cc(C(=O)N(C)[C@@H]2CCN(C(C)C)C2)ccc1-n1c(C)nc2ccccc21` (as salt: hydrochloride) [Example 109, 3-methoxy-N-methyl-4-(2-methyl-1H-benzimidazol-1-yl)-N-[(3R)-1-(1-methylethyl)pyrrolidin-3-yl]benzamide]: 168 to 170 °C; for `CN(C(=O)c1ccc(-n2ncc3ccccc32)cc1)[C@@H]1CCN(C2CCC2)C1` (as salt: hydrochloride) [Example 65, N-[(3R)-1-cyclobutylpyrrolidin-3-yl]-4-(1H-indazol-1-yl)-N-methylbenzamide]: 163 to 165 °C.
In the case of `Cc1nc2ccccc2n1-c1ccc(C(=O)N(C)C2CCN(C(C)C)CC2)c(Cl)c1` (as salt: hydrochloride) [Example 121, 2-chloro-N-methyl-4-(2-methyl-1H-benzimidazol-1-yl)-N-[1-(1-methylethyl)piperidin-4-yl]benzamide] it was 250 °C (dec.); in that of `CN(C(=O)c1ccc(Cn2cccn2)cc1)C1CCN(C2CCC2)CC1` (as salt: hydrochloride) [Example 92, N-(1-cyclobutylpiperidin-4-yl)-N-methyl-4-(1H-pyrazol-1-ylmethyl)benzamide], 235 to 237 °C.
With `Cc1nc2ccccc2n1-c1ccc(C(=O)N(C)C2CCN(C3CCCC3)CC2)cc1` (as salt: hydrochloride) [Example 32, N-(1-cyclopentylpiperidin-4-yl)-N-methyl-4-(2-methyl-1H-benzimidazol-1-yl)benzamide], the melting point is 270 °C (dec.).
In the case of `CN(C(=O)c1ccc(Cn2ncc3ccccc32)cc1)[C@@H]1CCN(C2CCC2)C1` (as salt: hydrochloride) [Example 77, N-[(3R)-1-cyclobutylpyrrolidin-3-yl]-4-(1H-indazol-1-ylmethyl)-N-methylbenzamide] it was 105 to 106 °C.
As for `Cc1nc2ccccc2n1-c1ccc(C(=O)N(C)[C@H]2CCN(C3CCCCC3C)C2)cc1` (stereo partly shown) (as salt: hydrochloride), the melting point lay within 195 to 196 °C.
In the case of `CN(C(=O)c1ccc(Cn2ncc3ccccc32)cc1)C1CCN(C2CCCC2)CC1` (as salt: hydrochloride) [Example 81, N-(1-cyclopentylpiperidin-4-yl)-4-(1H-indazol-1-ylmethyl)-N-methylbenzamide] it was 265 to 267 °C.
`Cc1nc2ccccc2n1-c1ccc(C(=O)N(C)[C@@H]2CCN(C3CCCCC3)C2)cc1` (as salt: hydrochloride) gave a melting point of 193 to 194 °C.
In the case of `Cc1nc2ccccc2n1-c1ccc(C(=O)N(C)[C@H]2CCN(C3CCCCC3)C2)cc1` (as salt: hydrochloride) it was 170 to 172 °C; in that of `Cc1nc2ccccc2n1-c1ccc(C(=O)N(C)[C@@H]2CCN(CC3CC3)C2)cc1` (as salt: hydrochloride), 185 to 186 °C.

The record behind these values is US20080293771A1, “AZACYCLYLBENZAMIDE DERIVATIVES AS HISTAMINE-3 ANTAGONISTS” (Wyeth, priority 2007, published 2008).
